Reference: patent US20080281526A1, “Methods For Molecular Toxicology Modeling” (priority 2004, published 2008)
Read-outs that look alike come from different tables or passages of the source.

Tested on: rat liver tissue
Method: From the nucleic acid hybridization data, a prediction score is calculated for that sample and compared to a reference score from a toxicity reference database according to the following equation. The sample prediction score=ΣwiR^FC^i. “i” is the index number for each gene in a gene expression profile to be evaluated. “wi” is the PLS weight (or PLS score, see Table 2 for an exemplary list of PLS scores for a general kidney toxicity model) for each gene. “R^FC^i” is the RMA fold-change value for the i^th gene, as determined from a normalized RMA matrix of gene expression data from the sample (described above). The PLS weight multiplied by the RMA fold-change value gives a gene regulation score for each gene, and the regulation scores for all the individual genes are added to give a prediction score for the sample.
To establish a toxicity prediction score cut-off value for a toxicity model, the true-positive and false positive rates for each possible score cut-off value are computed, using the scores from all tox and non-tox samples in the training set. This generates an ROC curve, which we use to set the cut-off score at the point on the ROC curve corresponding to ˜5% false positive rate. For example, in a kidney toxicity model of Table 2, a cut-off prediction score is about 0.318.
The conversion algorithm was tested using the liver toxicity model described in U.S. Provisional Application Ser. No. 60/559,949 and herein incorporated by reference.
The first step to using a conversion algorithm is to map microarray fragments. The RGU34 A microarray fragments which comprise the liver toxicity model were mapped to the RAE2.0 microarray. The liver toxicity model is based on 1,100 Affymetrix GeneChip® RGU34 A microarray fragments. […] See Affymetrix's “User's Guide to Product Comparison Spreadsheets” which is herein incorporated by reference.
Once the microarray fragments are mapped, training samples are selected to calculate the conversion model weights. The inventors searched Gene Logic's ToxExpress® reference database, a database which is built on the Affymetrix RGU34A platform, for samples that covered a large amount of interquartile range with respect to signal intensity. […] The samples maximized Ei(Max(Xij)−Min(Xij)), where i indexes genes and j indexes samples.
For this reason, a training set consisting of 100 compounds and vehicles from rat liver tissue was selected.
The 100 training samples were used to train the weights in the conversion algorithm. This step is important because it provides for the quantitative aspect of the conversion. The weight training was performed based on a multiple regression analysis with probe values as the independent variables and RMA expression as the sum of the dependent variables.
Test samples were evaluated using the trained conversion algorithm. The multiple regression model was built on the 11 perfect match probe intensities and generated a predicted RGU34 expression value from a weighted sum of RAE 2.0 probe values. Each test array was scaled to an average probe intensity of 10 (log scale). The conversion algorithm used is given as:
Yi^RGU34=βio+Σβij LOG(Xij^RAE2.0/S)

[1] = RAE2.0 converted RMA data, liver predictive model
[2] = RGU34 RMA data, liver predictive model

## CN(C)CCC=C1c2ccccc2CCc2ccccc21 [Amitryptilene]
[1]
  number of test samples predicted as toxic out of the total number of samples for that compound: 2/2
[2]
  number of test samples predicted as toxic out of the total number of samples for that compound: 1/2

## CN(C)CCC(c1ccc(Cl)cc1)c1ccccn1 (stereo not drawn) [Chlorpheniramine, chlorpheniramine]
rat, in vivo
  number of test samples predicted as toxic out of the total number of samples for that compound: 0/3

## CCOC(=O)C(C)(C)Oc1ccc(Cl)cc1 [Clofibrate]
rat, in vivo
  number of test samples predicted as toxic out of the total number of samples for that compound: 0/3

## O=C(O)c1cc(-c2ccc(F)cc2F)ccc1O [Diflunisal, diflunisal]
rat, in vivo
  number of test samples predicted as toxic out of the total number of samples for that compound: 2/3

## C[C@]12CC[C@@H]3c4ccc(O)cc4CC[C@H]3[C@@H]1CC[C@@H]2O [Estradiol, estradiol]
rat, in vivo
  number of test samples predicted as toxic out of the total number of samples for that compound: 3/3

## CCSCC[C@H](N)C(=O)O [Ethionine, ethionine]
[1]
  number of test samples predicted as toxic out of the total number of samples for that compound: 3/3
[2]
  number of test samples predicted as toxic out of the total number of samples for that compound: 3/3

## CCC1(c2ccccc2)C(=O)NC(=O)NC1=O [Phenobarbital, phenobarbital]
[1]
  number of test samples predicted as toxic out of the total number of samples for that compound: 3/3
[2]
  number of test samples predicted as toxic out of the total number of samples for that compound: 3/3

## CN(CCOc1ccc(CC2SC(=O)NC2=O)cc1)c1ccccn1 (stereo not drawn) [Rosiglitazone, rosiglitazone]
rat, in vivo
  number of test samples predicted as toxic out of the total number of samples for that compound: 0/3

## [H]/N=C(/N)N[C@H]1[C@H](O)[C@@H](O)[C@H](O[C@@H]2O[C@@H](C)[C@](O)(C=O)[C@H]2O[C@@H]2O[C@@H](CO)[C@H](O)[C@@H](O)[C@@H]2NC)[C@@H](N/C(N)=N\[H])[C@@H]1O [Streptomycin, streptomycin]
rat, in vivo
  number of test samples predicted as toxic out of the total number of samples for that compound: 0/3
